Results published in PubChem BioAssay AID977607 (Broad Institute, 2014).
Values joined by “and” are separate entries in the source; they are usually repeats but may differ in a detail not shown here. Equal entries are not always repeated. Active and inactive are the calls of the source.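 How the source made its calls: active means curve reaches 40% activation over neutral controls at an AC40 no higher than the top valid tested concentration; inconclusive means no clear call, values can overlap the other calls; inactive means signal moving opposite to the expected increase, and the rest.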

System: INS-1E GLuc insulin secretion reporter, luminescence, 2-3 h
Test: GLuc-reported insulin release enhancers, glucose-stimulated beta cells – cell-based, INS-1E, Gaussia luciferase, luminescence, cherry-pick, set 2, dose response (AID 977607)

SMILES | AC40
O=C(Nc1ccc(C(F)(F)F)cc1)N1C[C@@H]2N[C@H](C1)C2c1ccc(/C=C/c2ccccc2)cc1 (some centres undefined) | 8.24 µM and 1.64 µM
CCCCc1c(-c2cccc(OC)c2)ncn1CCc1ccccc1OC | 11.8 µM
NC(=O)COC(=O)c1ccccc1Oc1ccccc1 | 6.24 µM
CC(=O)Oc1ccc(Cl)cc1/C=C/c1ccc2ccccc2n1 | 24.9 µM
Cc1ccc(-n2nc3ccc(NC(=O)c4ccco4)cc3n2)cc1 | 10.8 µM
CCn1c(O)c(/C=N/N=C/c2ccc(OC)cc2)c2cc(C3=NNC(=O)CC3)ccc21 | 4.21 µM
CCOC(=O)c1cnc2c(Cl)c(Cl)ccc2c1NCCN1CCOCC1 | > 35 µM (inactive)
O=C(OCC12CC3CC(CC(C3)C1)C2)c1ccc(NCc2cc(O)ccc2O)cc1 | 14.9 µM
O=c1c2ccccc2nc(-c2ccco2)n1/N=C/c1ccccc1O | 14.7 µM
CCOC(=O)C1(C)CCCCN1C(=O)c1cccc(Cl)c1 (centres undefined) | > 35 µM (inactive)
NC(N)=N/N=C/c1ccc(OCc2ccccc2Cl)cc1 | 16.4 µM
COc1cc2c(cc1OC)[C@H](C)N(C(=O)NCc1ccccc1)CC2 | 8 µM
CCOc1cccc(-c2csc(C3COc4ccccc4O3)n2)c1 (centres undefined) | 3.7 µM
C/C=C/c1ccc(C2[C@H]3CNC[C@@H]2N3Cc2cc(-c3ccccc3)on2)cc1 (some centres undefined) | 9.74 µM
C=CCN(Cc1ccc(OC)c(OC)c1)C(=O)N1CCOCC1 | > 35 µM (inactive)
N#Cc1c(N)n(C2CCCCC2)c2nc3ccccc3nc12 | 18.9 µM
NS(=O)(=O)c1ccc(N=Cc2c(O)n(C3CCCCC3)c(=O)n(C3CCCCC3)c2=O)cc1 | 16 µM
O=C(Nc1nc2ccccc2n1Cc1ccc(Cl)cc1)c1ccco1 | 7.18 µM
O=C(Nc1ccc2c(c1)OCO2)N1C[C@@H]2N[C@H](C1)C2c1ccc(C=Cc2ccccc2)cc1 (some centres undefined) | 9.05 µM
COCCn1c(=NC(=O)c2cc(Cl)sc2Cl)sc2cc(S(N)(=O)=O)ccc21 | 7.51 µM
Cc1ccc(/C=N/NC(=O)COc2ccccc2-c2ccccc2)cc1 | 7.03 µM
Fc1ccc(-c2ccc(C3[C@@H]4CN(Cc5cccc(F)c5)C[C@H]3N4)cc2)cc1 (some centres undefined) | 5.48 µM
N#Cc1c(-c2cccc(Br)c2)cc(-c2cccnc2)nc1N | 5.82 µM
Cc1ccc(C)c(C(=O)Nc2nc3ccccc3[nH]2)c1 | 8.78 µM
Cc1ccc2c(Cl)c(C)c(N3CCCCC3)nc2n1 | 11.5 µM
CN(C)CCNC(=O)c1cc2c(s1)-c1ccc(Cl)cc1SC2 | 6.54 µM
COc1cc2c(cc1OC)-c1cc(Nc3ccccc3C)nc(=O)n1CC2 | 0.408 µM

SMILES | AC40
CCCc1nnc2n1N=C(c1ccc(OC)c(OC)c1)CS2 | 2.98 µM
O=c1[nH]cnc2nc(-c3ccc(N(CCCl)CCCl)cc3)[nH]c12 | 5.89 µM
Cc1cc(C)cc(OCCCN2CCC(C(O)(c3ccccc3)c3ccccc3)CC2)c1 | 13 µM
Cn1c(=O)c2c(nc3n2CCCN3CCc2ccccc2)n(C)c1=O | > 35 µM (inactive)
CC(C)n1nc(C(=O)Nc2ccccc2N2CCOCC2)c2ccccc2c1=O | 8.07 µM
COc1cc(NC(=O)c2cccc(C)c2)ccc1NC(=O)c1cc2ccccc2o1 | 3.24 µM
O=c1c2ccc(Cl)cc2[nH]c(=S)n1CCC1=CCCCC1 | 3.37 µM
COc1ccc(C2=NN(C(=O)CCCC(=O)O)C(c3cccs3)C2)cc1OC (centres undefined) | 11.6 µM
O=C(NCc1ccccn1)c1coc(=O)c(Br)c1 | 2.01 µM
CCOc1nc(NC(=O)NS(=O)(=O)c2cccc(Cl)c2)nc(-c2ccccc2)n1 | > 35 µM (inactive)
c1ccc(-c2nnc3ccc(N4CCC5(CC4)OCCO5)nn23)cc1 | > 35 µM (inactive)
CC(=O)N(C1CC(C)C(C#N)(C#N)C1(C#N)C#N)N(C)C (centres undefined) | 1.85 µM
CCCNC(=O)c1nnsc1S(=O)c1ccc(Cl)cc1 (centres undefined) | 1.06 µM
Cc1nc(NC(=O)c2cccc(-c3cc4ccccc4oc3=O)c2)ccc1Br | 12.7 µM
O=C(Nc1ccccc1)c1nnsc1S(=O)(=O)c1ccc(Cl)cc1 | 1.21 µM
Cc1cc(C)cc(NC(=O)Cc2ccc(-n3cccc3)cc2)c1 | 8.29 µM
O=C(O)c1ccc(-n2nnnc2SCc2ccccc2F)cc1 | 0.0781 µM
COc1ccc(/C=N/NC(=O)Cn2nnc3ccccc32)cc1OC | 24.4 µM
Cc1ccc(-c2ccc(C3[C@@H]4CN(Cc5cccc(F)c5)C[C@H]3N4)cc2)cc1 (some centres undefined) | 3.07 µM
COC(=O)C1=C(C)N(Cc2cccc(C(F)(F)F)c2)C(=NCc2ccc(OC)cc2)NC1c1ccc(F)cc1 (centres undefined) | 15.5 µM
Cc1[nH]c2ccc(OC(F)(F)F)cc2c1CCNCc1ccc(Cl)cc1 | 6.14 µM
O=C(CCn1ccc2cc(S(=O)(=O)N3CCCC3)ccc21)NCc1cccc(F)c1 | 9.56 µM
Cc1c(O)cnc2nn(-c3ccccc3)c(=N)n12 | > 35 µM (inactive)
N#Cc1cccc(Oc2ccc(-c3cnc4ccccc4n3)cc2)c1C#N | 13.1 µM
N#Cc1nccnc1S(=O)(=O)c1cccs1 | 0.467 µM
O=C(NN=Cc1ccccc1Cl)c1cccc2ccccc12 | 11.6 µM
CCOC(=O)[C@]12Cc3cc(OC)ccc3[C@H]1N(C1CCCCC1)C(=O)c1cc(OC)ccc12 | 12 µM

SMILES | AC40
CC(C)CCn1c(N2CCCC2)nc2c1c(=O)[nH]c(=O)n2C | 31.7 µM
CCC(=O)Nc1ccc(NC(=S)NC(=O)c2oc3ccccc3c2C)cc1 | 5.76 µM
O=C(Nc1cccc(Cl)c1)Nc1nnc(CSCCOc2ccc(Cl)cc2)s1 | 5.57 µM
O[C@H]1C[C@H](c2ccccc2)N(CC2CCCCC2)C[C@@H]1n1cc(C2CC2)nn1 | 11.5 µM
Cc1ccc(S(=O)(=O)C=CS(=O)(=O)c2ccc(C)cc2)cc1 | 0.224 µM
CC(C)(c1ccccc1)c1ccc(OCC(O)CNC2CCN(Cc3ccccc3)CC2)cc1 (centres undefined) | 11.8 µM
Cc1nnn(-c2nonc2N)c1C(=O)N/N=C/c1cccc2ccccc12 | 7.29 µM
CC1CCN(S(=O)(=O)c2ccc(C(=O)OCc3ccc4c(c3)OCO4)cc2)CC1 | 13.4 µM
CCCCn1c(N2CCCC2)nc2c1c(=O)[nH]c(=O)n2C | 5.57 µM
CCOc1ncccc1C(=O)Nc1ncc(C)s1 | > 35 µM (inactive)
O=C(c1ccc(F)cc1)N1C[C@@H]2N[C@H](C1)C2c1ccc(/C=C/c2ccccc2)cc1 (some centres undefined) | 6.56 µM
O=C(NCC1OCCc2ccccc21)c1ccc(NC(=O)c2ccc(Cl)cc2Cl)cc1 (centres undefined) | 20.4 µM
Fc1cccc(-c2ccc(C3[C@@H]4CN(Cc5ccccc5F)C[C@H]3N4)cc2)c1 (some centres undefined) | 5.28 µM
CNC[C@H](CC1CCCCC1)NC[C@H](Cc1ccccc1)NCCC12CC3CC(CC(C3)C1)C2 | 8.32 µM
NS(=O)(=O)c1ccc(CCNc2nc3c(-c4cccc(F)c4)nnn3c3ccccc23)cc1 | 15.9 µM
CC(C)CC#Cc1ccc2c(c1)O[C@@H](CN(C)Cc1ccccc1)[C@H](C)CN([C@H](C)CO)S2(=O)=O | 9.77 µM
O=C(N/N=C/c1ccc(O)cc1O)NC12CC3CC(CC(C3)C1)C2 | 18.1 µM
COc1ccc(CCNC(=O)NS(=O)(=O)c2ccc(C)cc2)cc1OC | > 35 µM (inactive)
COc1ccccc1CCn1cnc(-c2ccccc2OC)c1CC(C)C | 14.6 µM
CCOC(=O)c1nc(SC)n(C)c1C(=O)OCC | 4.49 µM
CN(C)CCOc1ccc(-c2c(-c3ccccc3)sc3ccccc23)cc1 | 2.75 µM
O=C(NCCC1=CCCCC1)C(=O)NCC(c1ccco1)N1CCN(c2ccccc2)CC1 (centres undefined) | 6.33 µM
CS(=O)(=O)N(Cc1ccc(Cl)cc1)c1ccc(C(=O)NCCC2=CCCCC2)cc1 | 13 µM
CC(=O)C1=C(S(=O)(=O)c2ccc(C)cc2)CS(=O)(=O)C1 | 1.23 µM
O=C(c1cccs1)c1coc2ccc(O)c(CN3CCOCC3)c12 | > 35 µM (inactive)
